# Assay: PAMPA permeability, brain polar lipid extract (BPLE) membrane
# Details: Brain Polar lipid extract membrane, n=3
row,Structure (SMILES),Mean logPe
1,CCn1cc(C(=O)O)c(=O)c2cc(F)c(N3CCNCC3)nc21 [enoxacin],-5.12
2,CO/N=C(\C(=O)N[C@@H]1C(=O)N2C(C(=O)O)=C(COC(N)=O)CS[C@H]12)c1ccco1 [cefuroxime],-5.94
3,CC1Cc2ccccc2N1NC(=O)c1ccc(Cl)c(S(N)(=O)=O)c1 (stereo not shown) [indapamide],-5.19
4,NC(N)=Nc1nc(CSCCC(N)=NS(N)(=O)=O)cs1 [famotidine],< -6.48
5,Cn1c(=O)c2c(ncn2C)n(C)c1=O [caffeine],-5.53

# The remaining lines, values ahead:
row,Mean logPe,Structure (SMILES)
1,-4.65,CC(CCc1ccccc1)NCC(O)c1ccc(O)c(C(N)=O)c1 (stereo not shown) [labetalol]
2,< -6.12,N=C(N)c1ccc(OCCCOc2ccc(C(=N)N)cc2)cc1 [propamidine]
3,-4.67,NC(=O)Cc1cccc(C(=O)c2ccccc2)c1N [nepafenac]

# Same assay, conditions: Brain Polar lipid extract membrane, n=3; * = not detected at acceptor side, value calculated from limit of detection
row,Mean Pe,Structure (SMILES)
1,"< 0,76* 10-6 cm/s",N=C(N)c1ccc(OCCCOc2ccc(C(=N)N)cc2)cc1 [propamidine]
2,"< 0,33* 10-6 cm/s",NC(N)=Nc1nc(CSCCC(N)=NS(N)(=O)=O)cs1 [famotidine]

# Same assay, conditions: pig, PAMPA, pH 7.4
row,Structure (SMILES),"Papp at 4 h, 100 μM [×10⁻⁶ cm/s]"
1,CCn1cc(C(=O)O)c(=O)c2cc(F)c(N3CCNCC3)nc21 [enoxacin],7.58
2,CO/N=C(\C(=O)N[C@@H]1C(=O)N2C(C(=O)O)=C(COC(N)=O)CS[C@H]12)c1ccco1 [cefuroxime],1.14
3,CC1Cc2ccccc2N1NC(=O)c1ccc(Cl)c(S(N)(=O)=O)c1 (stereo not shown) [indapamide],6.6
4,Cn1c(=O)c2c(ncn2C)n(C)c1=O [caffeine],2.97

# More lines, now with the values ahead:
row,"Papp at 4 h, 100 μM [×10⁻⁶ cm/s]",Structure (SMILES)
1,22.2,CC(CCc1ccccc1)NCC(O)c1ccc(O)c(C(N)=O)c1 (stereo not shown) [labetalol]
2,21.3,NC(=O)Cc1cccc(C(=O)c2ccccc2)c1N [nepafenac]

# Assay: PAMPA permeability, liver polar lipid extract (LPLE) membrane
# Details: bovine, PAMPA, pH 7.4, Mean Pe, n=3, * = not detected at acceptor side, value calculated from limit of detection
row,Structure (SMILES),"Papp at 4 h, 100 μM [×10⁻⁶ cm/s]"
1,CCn1cc(C(=O)O)c(=O)c2cc(F)c(N3CCNCC3)nc21 [enoxacin],3.49
2,CO/N=C(\C(=O)N[C@@H]1C(=O)N2C(C(=O)O)=C(COC(N)=O)CS[C@H]12)c1ccco1 [cefuroxime],7.1
3,CC1Cc2ccccc2N1NC(=O)c1ccc(Cl)c(S(N)(=O)=O)c1 (stereo not shown) [indapamide],16.9
4,Cn1c(=O)c2c(ncn2C)n(C)c1=O [caffeine],11.3

# Results, then the compound that gave them:
row,"Papp at 4 h, 100 μM [×10⁻⁶ cm/s]",Structure (SMILES)
1,19,CC(CCc1ccccc1)NCC(O)c1ccc(O)c(C(N)=O)c1 (stereo not shown) [labetalol]
2,38.6,NC(=O)Cc1cccc(C(=O)c2ccccc2)c1N [nepafenac]

# Same assay, conditions: n=3
row,Structure (SMILES),Mean logPe
1,CCn1cc(C(=O)O)c(=O)c2cc(F)c(N3CCNCC3)nc21 [enoxacin],-5.46
2,CO/N=C(\C(=O)N[C@@H]1C(=O)N2C(C(=O)O)=C(COC(N)=O)CS[C@H]12)c1ccco1 [cefuroxime],-5.17
3,CC1Cc2ccccc2N1NC(=O)c1ccc(Cl)c(S(N)(=O)=O)c1 (stereo not shown) [indapamide],-4.77
4,NC(N)=Nc1nc(CSCCC(N)=NS(N)(=O)=O)cs1 [famotidine],< -6.49
5,Cn1c(=O)c2c(ncn2C)n(C)c1=O [caffeine],-4.95

# More lines, now with the values ahead:
row,Mean logPe,Structure (SMILES)
1,-4.72,CC(CCc1ccccc1)NCC(O)c1ccc(O)c(C(N)=O)c1 (stereo not shown) [labetalol]
2,< -6.12,N=C(N)c1ccc(OCCCOc2ccc(C(=N)N)cc2)cc1 [propamidine]
3,-4.44,NC(=O)Cc1cccc(C(=O)c2ccccc2)c1N [nepafenac]

# Same assay, conditions: n=3, * = not detected at acceptor side, value calculated from limit of detection
row,Mean Pe,Structure (SMILES)
1,"< 0,76* 10-6 cm/s",N=C(N)c1ccc(OCCCOc2ccc(C(=N)N)cc2)cc1 [propamidine]
2,"< 0,33* 10-6 cm/s",NC(N)=Nc1nc(CSCCC(N)=NS(N)(=O)=O)cs1 [famotidine]

# Assay: PAMPA permeability, heart polar lipid extract (HPLE) membrane
# Details: Heart Polar lipid extract membrane, n=3
row,Structure (SMILES),Mean logPe
1,CCn1cc(C(=O)O)c(=O)c2cc(F)c(N3CCNCC3)nc21 [enoxacin],-5.44
2,CO/N=C(\C(=O)N[C@@H]1C(=O)N2C(C(=O)O)=C(COC(N)=O)CS[C@H]12)c1ccco1 [cefuroxime],< -5.89
3,CC1Cc2ccccc2N1NC(=O)c1ccc(Cl)c(S(N)(=O)=O)c1 (stereo not shown) [indapamide],-5.28
4,Cn1c(=O)c2c(ncn2C)n(C)c1=O [caffeine],-5.39

# Continued, values first:
row,Mean logPe,Structure (SMILES)
1,-5.08,CC(CCc1ccccc1)NCC(O)c1ccc(O)c(C(N)=O)c1 (stereo not shown) [labetalol]
2,-4.59,NC(=O)Cc1cccc(C(=O)c2ccccc2)c1N [nepafenac]

# Same assay, conditions: Heart Polar lipid extract membrane, n=3; * = not detected at acceptor side, value calculated from limit of detection
row,Mean Pe,Structure (SMILES)
1,"< 1,28* 10-6 cm/s",CO/N=C(\C(=O)N[C@@H]1C(=O)N2C(C(=O)O)=C(COC(N)=O)CS[C@H]12)c1ccco1 [cefuroxime]
2,"< 0,73* 10-6 cm/s",N=C(N)c1ccc(OCCCOc2ccc(C(=N)N)cc2)cc1 [propamidine]
3,"< 0,34* 10-6 cm/s",NC(N)=Nc1nc(CSCCC(N)=NS(N)(=O)=O)cs1 [famotidine]

# Same assay, conditions: bovine, PAMPA, pH 7.4
row,Structure (SMILES),"Papp at 4 h, 100 μM [×10⁻⁶ cm/s]"
1,CCn1cc(C(=O)O)c(=O)c2cc(F)c(N3CCNCC3)nc21 [enoxacin],3.7
2,CC1Cc2ccccc2N1NC(=O)c1ccc(Cl)c(S(N)(=O)=O)c1 (stereo not shown) [indapamide],5.37
3,NC(N)=Nc1nc(CSCCC(N)=NS(N)(=O)=O)cs1 [famotidine],< 0.339
4,Cn1c(=O)c2c(ncn2C)n(C)c1=O [caffeine],4.19

# Continued, values first:
row,"Papp at 4 h, 100 μM [×10⁻⁶ cm/s]",Structure (SMILES)
1,8.38,CC(CCc1ccccc1)NCC(O)c1ccc(O)c(C(N)=O)c1 (stereo not shown) [labetalol]
2,< 0.741,N=C(N)c1ccc(OCCCOc2ccc(C(=N)N)cc2)cc1 [propamidine]
3,25.9,NC(=O)Cc1cccc(C(=O)c2ccccc2)c1N [nepafenac]

# Assay: PAMPA permeability, heart total lipid extract (HTLE) membrane
# Details: Heart total lipid extract membrane, n=3
row,Structure (SMILES),Mean logPe
1,CO/N=C(\C(=O)N[C@@H]1C(=O)N2C(C(=O)O)=C(COC(N)=O)CS[C@H]12)c1ccco1 [cefuroxime],-5.91
2,CC1Cc2ccccc2N1NC(=O)c1ccc(Cl)c(S(N)(=O)=O)c1 (stereo not shown) [indapamide],-5.69
3,Cn1c(=O)c2c(ncn2C)n(C)c1=O [caffeine],-5.59

# Continued, values first:
row,Mean logPe,Structure (SMILES)
1,-5.27,CC(CCc1ccccc1)NCC(O)c1ccc(O)c(C(N)=O)c1 (stereo not shown) [labetalol]
2,-4.73,NC(=O)Cc1cccc(C(=O)c2ccccc2)c1N [nepafenac]

# Same assay, conditions: Heart total lipid extract membrane, n=3; * = not detected at acceptor side, value calculated from limit of detection
row,Mean Pe,Structure (SMILES)
1,"< 0,76* 10-6 cm/s",N=C(N)c1ccc(OCCCOc2ccc(C(=N)N)cc2)cc1 [propamidine]
2,"< 0,33* 10-6 cm/s",NC(N)=Nc1nc(CSCCC(N)=NS(N)(=O)=O)cs1 [famotidine]

# Same assay, conditions: bovine, PAMPA, pH 7.4, Mean Pe, Heart total lipid extract membrane, n=3; * = not detected at acceptor side, value calculated from limit of detection
row,Structure (SMILES),"Papp at 4 h, 100 μM [×10⁻⁶ cm/s]"
1,CCn1cc(C(=O)O)c(=O)c2cc(F)c(N3CCNCC3)nc21 [enoxacin],0.4
2,CO/N=C(\C(=O)N[C@@H]1C(=O)N2C(C(=O)O)=C(COC(N)=O)CS[C@H]12)c1ccco1 [cefuroxime],1.25
3,CC1Cc2ccccc2N1NC(=O)c1ccc(Cl)c(S(N)(=O)=O)c1 (stereo not shown) [indapamide],2.04
4,Cn1c(=O)c2c(ncn2C)n(C)c1=O [caffeine],2.62

# Next, values leading:
row,"Papp at 4 h, 100 μM [×10⁻⁶ cm/s]",Structure (SMILES)
1,5.37,CC(CCc1ccccc1)NCC(O)c1ccc(O)c(C(N)=O)c1 (stereo not shown) [labetalol]
2,18.8,NC(=O)Cc1cccc(C(=O)c2ccccc2)c1N [nepafenac]

# Same assay, conditions: bovine, PAMPA, pH 7.4, Mean logPe, Heart total lipid extract membrane, n=3
row,"Papp at 4 h, 100 μM [×10⁻⁶ cm/s]",Structure (SMILES)
1,0.589,CCn1cc(C(=O)O)c(=O)c2cc(F)c(N3CCNCC3)nc21 [enoxacin]
2,< 0.759,N=C(N)c1ccc(OCCCOc2ccc(C(=N)N)cc2)cc1 [propamidine]
3,< 0.324,NC(N)=Nc1nc(CSCCC(N)=NS(N)(=O)=O)cs1 [famotidine]

# Same assay, conditions: pH 7.4, 4 h, 37 °C; in words (PCA biplot, Figure 11B)
row,Structure (SMILES),PAMPA permeability on HTLE
1,Cn1c(=O)c2c(ncn2C)n(C)c1=O [caffeine],low

# Assay: PAMPA permeability, liver total lipid extract (LTLE) membrane
# Details: Liver total lipid extract membrane, n=3
row,Structure (SMILES),Mean logPe
1,CCn1cc(C(=O)O)c(=O)c2cc(F)c(N3CCNCC3)nc21 [enoxacin],-5.37
2,CO/N=C(\C(=O)N[C@@H]1C(=O)N2C(C(=O)O)=C(COC(N)=O)CS[C@H]12)c1ccco1 [cefuroxime],< -5.94
3,CC1Cc2ccccc2N1NC(=O)c1ccc(Cl)c(S(N)(=O)=O)c1 (stereo not shown) [indapamide],-4.61
4,Cn1c(=O)c2c(ncn2C)n(C)c1=O [caffeine],-4.7

# Other lines, results leading:
row,Mean logPe,Structure (SMILES)
1,-4.42,CC(CCc1ccccc1)NCC(O)c1ccc(O)c(C(N)=O)c1 (stereo not shown) [labetalol]
2,< -6.12,N=C(N)c1ccc(OCCCOc2ccc(C(=N)N)cc2)cc1 [propamidine]
3,-4.14,NC(=O)Cc1cccc(C(=O)c2ccccc2)c1N [nepafenac]

# Same assay, conditions: Liver total lipid extract membrane, n=3; * = not detected at acceptor side, value calculated from limit of detection
row,Mean Pe,Structure (SMILES)
1,"< 1,14* 10-6 cm/s",CO/N=C(\C(=O)N[C@@H]1C(=O)N2C(C(=O)O)=C(COC(N)=O)CS[C@H]12)c1ccco1 [cefuroxime]
2,"< 0,76* 10-6 cm/s",N=C(N)c1ccc(OCCCOc2ccc(C(=N)N)cc2)cc1 [propamidine]
3,"< 0,33* 10-6 cm/s",NC(N)=Nc1nc(CSCCC(N)=NS(N)(=O)=O)cs1 [famotidine]

# Same assay, conditions: bovine, PAMPA, pH 7.4
row,Structure (SMILES),"Papp at 4 h, 100 μM [×10⁻⁶ cm/s]"
1,CCn1cc(C(=O)O)c(=O)c2cc(F)c(N3CCNCC3)nc21 [enoxacin],4.25
2,CC1Cc2ccccc2N1NC(=O)c1ccc(Cl)c(S(N)(=O)=O)c1 (stereo not shown) [indapamide],24.5
3,NC(N)=Nc1nc(CSCCC(N)=NS(N)(=O)=O)cs1 [famotidine],< 0.331
4,Cn1c(=O)c2c(ncn2C)n(C)c1=O [caffeine],20.3

# Results, then the compound that gave them:
row,"Papp at 4 h, 100 μM [×10⁻⁶ cm/s]",Structure (SMILES)
1,38,CC(CCc1ccccc1)NCC(O)c1ccc(O)c(C(N)=O)c1 (stereo not shown) [labetalol]
2,72.9,NC(=O)Cc1cccc(C(=O)c2ccccc2)c1N [nepafenac]

# Assay: PAMPA permeability, brain total lipid extract (BTLE) membrane
# Details: Brain total lipid extract membrane, n=3
row,Structure (SMILES),Mean logPe
1,CCn1cc(C(=O)O)c(=O)c2cc(F)c(N3CCNCC3)nc21 [enoxacin],-5.36
2,CO/N=C(\C(=O)N[C@@H]1C(=O)N2C(C(=O)O)=C(COC(N)=O)CS[C@H]12)c1ccco1 [cefuroxime],-5.89
3,CC1Cc2ccccc2N1NC(=O)c1ccc(Cl)c(S(N)(=O)=O)c1 (stereo not shown) [indapamide],-5.29
4,NC(N)=Nc1nc(CSCCC(N)=NS(N)(=O)=O)cs1 [famotidine],< -6.47
5,Cn1c(=O)c2c(ncn2C)n(C)c1=O [caffeine],-5.71

# More lines, now with the values ahead:
row,Mean logPe,Structure (SMILES)
1,-4.83,CC(CCc1ccccc1)NCC(O)c1ccc(O)c(C(N)=O)c1 (stereo not shown) [labetalol]
2,< -6.13,N=C(N)c1ccc(OCCCOc2ccc(C(=N)N)cc2)cc1 [propamidine]
3,-4.61,NC(=O)Cc1cccc(C(=O)c2ccccc2)c1N [nepafenac]

# Same assay, conditions: Brain total lipid extract membrane, n=3; * = not detected at acceptor side, value calculated from limit of detection
row,Mean Pe,Structure (SMILES)
1,"< 0,73* 10-6 cm/s",N=C(N)c1ccc(OCCCOc2ccc(C(=N)N)cc2)cc1 [propamidine]
2,"< 0,34* 10-6 cm/s",NC(N)=Nc1nc(CSCCC(N)=NS(N)(=O)=O)cs1 [famotidine]

# Same assay, conditions: pig, PAMPA, pH 7.4
row,Structure (SMILES),"Papp at 4 h, 100 μM [×10⁻⁶ cm/s]"
1,CCn1cc(C(=O)O)c(=O)c2cc(F)c(N3CCNCC3)nc21 [enoxacin],4.48
2,CO/N=C(\C(=O)N[C@@H]1C(=O)N2C(C(=O)O)=C(COC(N)=O)CS[C@H]12)c1ccco1 [cefuroxime],1.28
3,CC1Cc2ccccc2N1NC(=O)c1ccc(Cl)c(S(N)(=O)=O)c1 (stereo not shown) [indapamide],5.22
4,Cn1c(=O)c2c(ncn2C)n(C)c1=O [caffeine],1.96

# More lines, now with the values ahead:
row,"Papp at 4 h, 100 μM [×10⁻⁶ cm/s]",Structure (SMILES)
1,15.1,CC(CCc1ccccc1)NCC(O)c1ccc(O)c(C(N)=O)c1 (stereo not shown) [labetalol]
2,24.4,NC(=O)Cc1cccc(C(=O)c2ccccc2)c1N [nepafenac]

# — paper PMC10053807, “Natural Lipid Extracts as an Artificial Membrane for Drug Permeability Assay: In Vitro and In Silico Characterization” (Pharmaceutics, 2023)
